From patent US7026339B2, “Inhibitors of HCV NS5B polymerase” (priority 2003, dated 2006)

Tested on: HuH-7 replicon cells 5–15 and 9–13 (HCV replication)
Assay: Inhibition of viral replication in HuH-7 replicon cells (HCV RNA / GAPDH RNA by multiplex RT-PCR)
Assay type: cell-based
Details: Hepatitis C virus, 72 h; inhibiting 50% of replication; HuH-7 replicon cells, 3 days; read-out: IC50
Experimental: Compounds were evaluated for inhibition of viral replication according to published procedures (Bartenschlager, R., et. al., Science, 1999, 285, 110) with modifications as follows.
HuH-7 replicon cells 5–15 and 9–13 were cultured in Dulbecco's minimal essential medium (DMEM) containing high glucose and supplemented with 10% fetal bovine serum (FBS), L-glutamine (2 mM), non-essential amino acids (1×), Penicillin (100 IU/mL)/Streptomycin (100 μg/mL) and G418 (Geneticin, 750 μg/mL). Unless otherwise specified, all media components were obtained from Invitrogen. Replicon cell line stocks were maintained as sub-confluent monolayers by passaging every Monday (1:6 split) and Thursday (1:10 split) and incubated at 37° C. with 5% CO2. Tissue culture plates (96-well white clear bottom plates, Corning #3610) were seeded at 7×10^3 cells/well and incubated for 24 hours prior to addition of the compounds.
Compounds in dry powder form were diluted in DMSO (30 mM stock). Serial dilutions of each Compound in DMSO (10 mM–0.1 mM) were performed in a 96-well polypropylene plate using a microtiter format. Culture media (200 μl) was added to the corresponding wells of a sterile 96-well round bottom plate. Diluted compound (2 μl) was added to the corresponding wells of the medial plate (final compound concentrations: 100 μM–1 μM). Culture media was removed from the corresponding wells of the 96-well plate containing the replicon cells and 150 μl diluted compound added. Media containing 1% DMSO and a serially diluted IFN were included on each plate. The cultures were incubated at 37° C. with 5% CO2 for 3 days. Cultures were observed visually for cytotoxicity or compound precipitation prior to RNA extraction described below.
Total cellular RNA was extracted by spin column technology (RNeasy 96, Qiagen) using the vacuum methodology according to the manufacturer's protocol. In brief, culture media was removed and 100 μl RLT lysis buffer containing 0.14M β-mercaptoethanol (β-ME) was added to each well. The plate was kept flat on the laboratory bench and shaken vigorously to lyse the cells. An equal volume of 70% ETOH was mixed with the lysate and added to the corresponding columns of the RNeasy 96-well plate. Vacuum was applied to draw the lysate through the filters. After ventilating the plate, buffer RW1 (1 mL) was drawn through each column. The waste tray was emptied and the filters washed twice with buffer RPE (1 mL/wash). After ventilating the tray, the RNeasy plate was removed and the bottom of the plate struck several times on a stack of paper towels to remove excess wash buffer. The waste tray was removed from the vacuum apparatus and the RNeasy 96-well plate dried by applying vacuum for 10 minutes. Total cellular RNA was eluted from the columns with two washes of 60 μl RNase-free water.
Relative quantitative multiplex RT-PCR was performed using TaqMan (TM) EZ RT Core Reagent kit (Perkin Elmer) according to the manufacturer's protocol (PE Applied Biosystems User Bulletin #2). Primer 061 (NT 61–82) and 139 (NT 139–158) amplifying a short region in the 5′ untranslated region of the HCV genome were utilized at 300 nM final concentrations. Probe #3 (NT 97–119) labeled with FAM reporter dye was utilized at 200 nM final concentration. Pre-developed human GAPDH primers and probe labeled with VIC reporter dye were obtained from PE Applied Biosystems (# 4310884E) and used according to the manufacturer's protocol. TM RT-PCR master mix was prepared containing the above primers/probe for both target RNA. Total cellular RNA (2 μl) was added to the reaction tubes of a 96-well optical plate that corresponded to the wells of the replicon culture plate. The final volume of each reaction was 50 μl. A standard curve was prepared from ten-fold serial dilutions of total cellular RNA extracated from 10^6 replicon cells and eluted in 30 μl RNase-free water. […]

`COc1ccc(CC(=O)N/N=C/c2ccccc2OS(=O)(=O)c2ccc(C(F)(F)F)cc2)c(OC)c1OC` [Compound 15, 2-((E)-{2-[2-(2,3,4-trimethoxyphenyl)acetyl]hydrazono}-methyl)phenyl 4-(trifluoromethyl)-benzenesulfonate] was tested, and the IC50 was under 5 µM.

`O=C(Cc1ccc(F)c(F)c1F)N/N=C/c1ccccc1OS(=O)(=O)c1ccc(C(F)(F)F)cc1` [Compound 16, 2-((E)-{2-[2-(2,3,4-trifluorophenyl)acetyl]hydrazono}methyl)-phenyl 4-(trifluoromethyl)benzenesulfonate] showed an IC50 of under 5 µM.

Molecule `O=C(Cc1cc(F)c(F)cc1F)N/N=C/c1ccccc1OS(=O)(=O)c1ccc(C(F)(F)F)cc1` [Compound 17, 2-((E)-{2-[2-(2,4,5-trifluorophenyl)acetyl]hydrazono}methyl)-phenyl 4-(trifluoromethyl)benzenesulfonate] has an IC50 of under 5 µM.

`O=C(Cc1cc(F)c(F)c(F)c1)N/N=C/c1ccccc1OS(=O)(=O)c1ccc(C(F)(F)F)cc1` [Compound 18, 2-((E)-{2-[2-(3,4,5-trifluorophenyl)acetyl]hydrazono}methyl)-phenyl 4-(trifluoromethyl)benzenesulfonate] was tested, and the IC50 was under 5 µM.

`O=C(Cc1ccc(SC(F)(F)F)cc1)N/N=C/c1ccccc1OS(=O)(=O)c1ccc(C(F)(F)F)cc1` [Compound 19, 2-{(E)-[2-(2-{4-[(trifluoromethyl)thio]phenyl}acetyl)hydra-zono]methyl}phenyl 4-(trifluoromethyl)benzenesulfonate] showed an IC50 of 5 to 50 µM.

With `O=C(Cc1cc(F)cc(F)c1F)N/N=C/c1ccccc1OS(=O)(=O)c1ccc(C(F)(F)F)cc1` [Compound 20, 2-((E)-{2-[2-(2,3,5-trifluorophenyl)acetyl]hydrazono}methyl)-phenyl 4-(trifluoromethyl)benzenesulfonate] the IC50 was under 5 µM.

For `O=C(Cc1cccc(OC(F)(F)F)c1)N/N=C/c1ccccc1OS(=O)(=O)c1ccc(C(F)(F)F)cc1` [Compound 21, 2-[(E)-(2-{2-[3-(trifluoromethoxy)phenyl]acetyl}hydrazono)-methyl]phenyl 4-(trifluoromethyl)benzenesulfonate], the IC50 was under 5 µM.

With `O=C(Cc1c(Cl)ccc(Cl)c1Cl)N/N=C/c1ccccc1OS(=O)(=O)c1ccc(C(F)(F)F)cc1` [Compound 22, 2-((E)-{2-[2-(2,3,6-trichlorophenyl)acetyl]hydrazono}methyl)-phenyl 4-(trifluoromethyl)benzenesulfonate] the IC50 was over 50 µM.

In the case of `O=C(Cc1cc(F)cc(C(F)(F)F)c1)N/N=C/c1ccccc1OS(=O)(=O)c1ccc(C(F)(F)F)cc1` [Compound 23, 2-[(E)-(2-{2-[3-fluoro-5-(trifluoromethyl)phenyl]acetyl}hydrazono)-methyl]phenyl 4-(trifluoromethyl)benzenesulfonate], the IC50 is reported as under 5 µM.

Molecule `COc1cccc(CC(=O)N/N=C/c2ccccc2OS(=O)(=O)c2ccc(C(F)(F)F)cc2)c1OC` [Compound 24, 2-((E)-{2-[2-(2,3-dimethoxyphenyl)acetyl]hydrazono}methyl)-phenyl 4-(trifluoromethyl)benzenesulfonate] has an IC50 of under 5 µM.

Molecule `O=C(Cc1ccccc1SC(F)(F)F)N/N=C/c1ccccc1OS(=O)(=O)c1ccc(C(F)(F)F)cc1` [Compound 25, 2-{(E)-[2-(2-{2-[(trifluoromethyl)thio]-phenyl}acetyl)hydrazono]methyl}phenyl 4-(trifluoromethyl)benzenesulfonate] has an IC50 of under 5 µM.

`CSc1ccc(CC(=O)N/N=C/c2ccccc2OS(=O)(=O)c2ccc(C(F)(F)F)cc2)cc1` [Compound 26, 2-[(E)-(2-{2-[4-(methylthio)phenyl]acetyl}hydrazono)methyl]-phenyl 4-(trifluoromethyl)benzenesulfonate] gave an IC50 of under 5 µM.

`O=C(Cc1c(F)ccc(F)c1F)N/N=C/c1ccccc1OS(=O)(=O)c1ccc(C(F)(F)F)cc1` [Compound 27, 2-((E)-{2-[2-(2,3,6-trifluorophenyl)acetyl]hydrazono}methyl)-phenyl 4-(trifluoromethyl)benzenesulfonate] showed an IC50 of under 5 µM.

In the case of `O=C(Cc1c(F)cccc1F)N/N=C/c1ccccc1OS(=O)(=O)c1ccc(C(F)(F)F)cc1` [Compound 28, 2-((E)-{2-[2-(2,6-difluorophenyl)acetyl]hydrazono}methyl)-phenyl 4-(trifluoromethyl)benzenesulfonate], the IC50 is reported as under 5 µM.

`O=C(Cc1ccccn1)N/N=C/c1ccccc1OS(=O)(=O)c1ccc(C(F)(F)F)cc1` [Compound 29, 2-{(E)-[2-(2-pyridin-2-ylacetyl)hydrazono]methyl}phenyl 4-(trifluoromethyl)benzenesulfonate] gave an IC50 of under 5 µM.

Molecule `O=C(CCc1cccnc1)N/N=C/c1ccccc1OS(=O)(=O)c1ccc(C(F)(F)F)cc1` [Compound 30, 2-{(E)-[2-(3-pyridin-3-ylpropanoyl)hydrazono]methyl}phenyl 4-(trifluoromethyl)benzenesulfonate] has an IC50 of under 5 µM.

`O=C(Cc1cc(F)ccc1F)N/N=C/c1ccccc1OS(=O)(=O)c1ccc(C(F)(F)F)cc1` [Compound 31, 2-((E)-{2-[2-(2,5-difluorophenyl)acetyl]hydrazono}methyl)-phenyl 4-(trifluoromethyl)benzenesulfonate] gave an IC50 of under 5 µM.

Molecule `O=C(Cc1cc(C(F)(F)F)ccc1C(F)(F)F)N/N=C/c1ccccc1OS(=O)(=O)c1ccc(C(F)(F)F)cc1` [Compound 32, 2-[(E)-(2-{2-[2,5-bis(trifluoromethyl)phenyl]acetyl}hydrazono)-methyl]phenyl 4-(trifluoromethyl)benzenesulfonate] has an IC50 of under 5 µM.

`O=C(Cc1c(F)cccc1C(F)(F)F)N/N=C/c1ccccc1OS(=O)(=O)c1ccc(C(F)(F)F)cc1` [Compound 33, 2-[(E)-(2-{2-[2-fluoro-6-(trifluoromethyl)phenyl]acetyl}hydrazono)-methyl]phenyl 4-(trifluoromethyl)benzenesulfonate] gave an IC50 of under 5 µM.

In the case of `O=C(Cc1ccc(C(F)(F)F)cc1)N/N=C/c1ccccc1OS(=O)(=O)c1ccc(C(F)(F)F)cc1` [Compound 34, 2-[(E)-(2-{2-[4-(trifluoromethyl)phenyl]acetyl}hydrazono)-methyl]phenyl 4-(trifluoromethyl)benzenesulfonate], the IC50 is reported as under 5 µM.

In the case of `O=C(Cc1cccc(C(F)(F)F)c1)N/N=C/c1ccccc1OS(=O)(=O)c1ccc(C(F)(F)F)cc1` [Compound 35, 2-[(E)-(2-{2-[3-(trifluoromethyl)phenyl]acetyl}hydrazono)-methyl]phenyl 4-(trifluoromethyl)benzenesulfonate], the IC50 is reported as under 5 µM.

`COc1ccccc1CC(=O)N/N=C/c1ccccc1OS(=O)(=O)c1ccc(C(F)(F)F)cc1` [Compound 36, 2-((E)-{2-[2-(2-methoxyphenyl)acetyl]hydrazono}methyl)-phenyl 4-(trifluoromethyl)benzenesulfonate] gave an IC50 of 5 to 50 µM.

Work on `COc1ccc(OC)c(CC(=O)N/N=C/c2ccccc2OS(=O)(=O)c2ccc(C(F)(F)F)cc2)c1` [Compound 37, 2-((E)-{2-[2-(2,5-dimethoxyphenyl)acetyl]hydrazono}methyl)-phenyl 4-(trifluoromethyl)benzenesulfonate] yielded an IC50 of under 5 µM.

Molecule `O=C(Cc1ccc(Cl)c(Cl)c1)N/N=C/c1ccccc1OS(=O)(=O)c1ccc(C(F)(F)F)cc1` [Compound 38, 2-((E)-{2-[2-(3,4-dichlorophenyl)acetyl]hydrazono}methyl)-phenyl 4-(trifluoromethyl)benzenesulfonate] has an IC50 of under 5 µM.
